Values quoted from earlier work in patent EP1228757B1 (Uni-Pharma Kleon Tsetis Pharmaceutical Laboratories S.A., priority 2001, dated 2002).

Tested on: albino rats
Conditions: endo-peritoneally administered to albino rats

Compound | LD50
CC(O)CO (centres unmarked) [Propylene glycol] | higher than 8000 mg/kg
Glycerol formal | 3000 mg/kg
